# Assay results taken from BigSolDB 2.1.
smiles,measurement,setting,value
COc1ccc(C=O)cc1O,solubility (mole fraction),"in ethanol, 278.15 K",0.0125
same,solubility (mole fraction),"in ethanol, 283.15 K",0.0153
same,solubility (mole fraction),"in ethanol, 288.15 K",0.0184
same,solubility (mole fraction),"in ethanol, 293.15 K",0.0227
same,solubility (mole fraction),"in ethanol, 298.15 K",0.0279
same,solubility (mole fraction),"in ethanol, 303.15 K",0.0338
same,solubility (mole fraction),"in ethanol, 308.15 K",0.0429
same,solubility (mole fraction),"in ethanol, 313.15 K",0.0547
same,solubility (mole fraction),"in ethanol, 318.15 K",0.0695
same,solubility (mole fraction),"in ethyl acetate, 278.15 K",0.0203
same,solubility (mole fraction),"in ethyl acetate, 283.15 K",0.0246
same,solubility (mole fraction),"in ethyl acetate, 288.15 K",0.029
same,solubility (mole fraction),"in ethyl acetate, 293.15 K",0.0342
same,solubility (mole fraction),"in ethyl acetate, 298.15 K",0.0401
same,solubility (mole fraction),"in ethyl acetate, 303.15 K",0.0478
same,solubility (mole fraction),"in ethyl acetate, 308.15 K",0.0559
same,solubility (mole fraction),"in ethyl acetate, 313.15 K",0.0655
same,solubility (mole fraction),"in ethyl acetate, 318.15 K",0.0806
same,solubility (mole fraction),"in formic acid, 278.15 K",0.0432
same,solubility (mole fraction),"in formic acid, 283.15 K",0.0486
same,solubility (mole fraction),"in formic acid, 288.15 K",0.0571
same,solubility (mole fraction),"in formic acid, 293.15 K",0.068
same,solubility (mole fraction),"in formic acid, 298.15 K",0.0832
same,solubility (mole fraction),"in formic acid, 303.15 K",0.101
same,solubility (mole fraction),"in formic acid, 308.15 K",0.115
same,solubility (mole fraction),"in formic acid, 313.15 K",0.137
same,solubility (mole fraction),"in formic acid, 318.15 K",0.165
same,solubility (mole fraction),"in isobutanol, 278.15 K",0.0086
same,solubility (mole fraction),"in isobutanol, 283.15 K",0.0098
same,solubility (mole fraction),"in isobutanol, 288.15 K",0.0161
same,solubility (mole fraction),"in isobutanol, 293.15 K",0.0192
same,solubility (mole fraction),"in isobutanol, 298.15 K",0.0223
same,solubility (mole fraction),"in isobutanol, 303.15 K",0.0271
same,solubility (mole fraction),"in isobutanol, 308.15 K",0.0338
same,solubility (mole fraction),"in isobutanol, 313.15 K",0.042
same,solubility (mole fraction),"in isobutanol, 318.15 K",0.0499
same,solubility (mole fraction),"in isobutyl acetate, 278.15 K",0.015
same,solubility (mole fraction),"in isobutyl acetate, 283.15 K",0.0165
same,solubility (mole fraction),"in isobutyl acetate, 288.15 K",0.0184
same,solubility (mole fraction),"in isobutyl acetate, 293.15 K",0.0216
same,solubility (mole fraction),"in isobutyl acetate, 298.15 K",0.025
same,solubility (mole fraction),"in isobutyl acetate, 303.15 K",0.0305
same,solubility (mole fraction),"in isobutyl acetate, 308.15 K",0.034
same,solubility (mole fraction),"in isobutyl acetate, 313.15 K",0.0408
same,solubility (mole fraction),"in isobutyl acetate, 318.15 K",0.0509
same,solubility (mole fraction),"in isopropanol, 278.15 K",0.0072
same,solubility (mole fraction),"in isopropanol, 283.15 K",0.0092
same,solubility (mole fraction),"in isopropanol, 288.15 K",0.0118
same,solubility (mole fraction),"in isopropanol, 293.15 K",0.0149
same,solubility (mole fraction),"in isopropanol, 298.15 K",0.0186
same,solubility (mole fraction),"in isopropanol, 303.15 K",0.0259
same,solubility (mole fraction),"in isopropanol, 308.15 K",0.0296
same,solubility (mole fraction),"in isopropanol, 313.15 K",0.0386
same,solubility (mole fraction),"in isopropanol, 318.15 K",0.0576
same,solubility (mole fraction),"in methanol, 278.15 K",0.0156
same,solubility (mole fraction),"in methanol, 283.15 K",0.0188
same,solubility (mole fraction),"in methanol, 288.15 K",0.0231
same,solubility (mole fraction),"in methanol, 293.15 K",0.0291
same,solubility (mole fraction),"in methanol, 298.15 K",0.0362
same,solubility (mole fraction),"in methanol, 303.15 K",0.0445
same,solubility (mole fraction),"in methanol, 308.15 K",0.059
same,solubility (mole fraction),"in methanol, 313.15 K",0.0836
same,solubility (mole fraction),"in methanol, 318.15 K",0.134
same,solubility (mole fraction),"in methyl acetate, 278.15 K",0.0382
same,solubility (mole fraction),"in methyl acetate, 283.15 K",0.0425
same,solubility (mole fraction),"in methyl acetate, 288.15 K",0.0536
same,solubility (mole fraction),"in methyl acetate, 293.15 K",0.0633
same,solubility (mole fraction),"in methyl acetate, 298.15 K",0.074
same,solubility (mole fraction),"in methyl acetate, 303.15 K",0.0866
same,solubility (mole fraction),"in methyl acetate, 308.15 K",0.104
same,solubility (mole fraction),"in methyl acetate, 313.15 K",0.121
same,solubility (mole fraction),"in methyl acetate, 318.15 K",0.147
same,solubility (mole fraction),"in n-butanol, 278.15 K",0.012
same,solubility (mole fraction),"in n-butanol, 283.15 K",0.0149
same,solubility (mole fraction),"in n-butanol, 288.15 K",0.017
same,solubility (mole fraction),"in n-butanol, 293.15 K",0.0219
same,solubility (mole fraction),"in n-butanol, 298.15 K",0.0253
same,solubility (mole fraction),"in n-butanol, 303.15 K",0.0352
same,solubility (mole fraction),"in n-butanol, 308.15 K",0.0445
same,solubility (mole fraction),"in n-butanol, 313.15 K",0.0542
same,solubility (mole fraction),"in n-butanol, 318.15 K",0.0641
same,solubility (mole fraction),"in n-propanol, 278.15 K",0.0186
same,solubility (mole fraction),"in n-propanol, 283.15 K",0.0209
same,solubility (mole fraction),"in n-propanol, 288.15 K",0.0242
same,solubility (mole fraction),"in n-propanol, 293.15 K",0.0284
same,solubility (mole fraction),"in n-propanol, 298.15 K",0.0331
same,solubility (mole fraction),"in n-propanol, 303.15 K",0.04
same,solubility (mole fraction),"in n-propanol, 308.15 K",0.0455
same,solubility (mole fraction),"in n-propanol, 313.15 K",0.0582
same,solubility (mole fraction),"in n-propanol, 318.15 K",0.0751
